# Read-outs that look alike come from different tables or passages of the source.
# Legend:
# [1] = In vitro rat microsomal stability assay; assay type: in vitro ADME, rat (Sprague-Dawley); settings: Sprague-Dawley, rat, microsomes, 0.5 h, 0.5 μM, pH 7.4
# Summary of the method: (§1)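 Compound is mixed with liver microsomes (human, or rat of the Sprague-Dawley strain). The mixture is then held at 37° C. in the presence of NADPH. Time-zero plates also receive NADPH.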
# [2] = In vitro human microsomal stability assay; assay type: in vitro ADME; settings: human, microsomes, 0.5 h, 0.5 μM, pH 7.4
# Summary of the method: as §1
# [3] = target: T1, human TRPV3 (Homo sapiens, UniProt Q8NET8); assay: In vitro antagonism of recombinant human TRPV3 activation (FLIPR Tetra calcium assay); assay type: cell-based; settings: HEK293 cells stably expressing human TRPV3, agonist 2-APB at 80 μM
# T1 construct: expressed in transfected cells
# T1 sequence (Q8NET8 1-790): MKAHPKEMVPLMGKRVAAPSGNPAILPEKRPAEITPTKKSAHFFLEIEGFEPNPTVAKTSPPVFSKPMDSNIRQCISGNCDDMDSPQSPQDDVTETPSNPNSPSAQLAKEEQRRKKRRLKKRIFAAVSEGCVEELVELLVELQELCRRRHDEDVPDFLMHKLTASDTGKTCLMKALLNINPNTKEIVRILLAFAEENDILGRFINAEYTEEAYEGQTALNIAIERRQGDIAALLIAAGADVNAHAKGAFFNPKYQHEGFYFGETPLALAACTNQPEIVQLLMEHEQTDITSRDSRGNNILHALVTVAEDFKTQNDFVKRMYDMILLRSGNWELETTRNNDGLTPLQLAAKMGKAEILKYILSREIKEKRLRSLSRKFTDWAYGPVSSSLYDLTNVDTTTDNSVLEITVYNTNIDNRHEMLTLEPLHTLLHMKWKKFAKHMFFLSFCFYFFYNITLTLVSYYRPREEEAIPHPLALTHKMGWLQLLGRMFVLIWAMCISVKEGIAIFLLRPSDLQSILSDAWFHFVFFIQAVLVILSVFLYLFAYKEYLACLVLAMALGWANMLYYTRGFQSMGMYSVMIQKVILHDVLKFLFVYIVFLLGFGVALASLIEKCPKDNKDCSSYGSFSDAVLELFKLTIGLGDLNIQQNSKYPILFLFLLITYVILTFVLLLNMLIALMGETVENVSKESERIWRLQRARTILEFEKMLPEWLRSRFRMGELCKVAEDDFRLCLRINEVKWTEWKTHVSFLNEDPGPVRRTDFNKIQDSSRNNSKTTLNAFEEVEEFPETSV
# Summary of the method: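 HEK293 cells stably expressing human TRPV3, loaded with Calcium-4 dye for 90–120 min, received compound in DPBS, then 80 μM 2-APB (EC80) 3 min later. Max-minus-min fluorescence expressed as % of 2-APB response without antagonist; IC50 values mostly averages of n≥2 runs.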
# [4] = actual measured value shown parenthetically, in most cases average of at least two runs, read-out: IC50
Compound,RAT MICROSOMAL STABILITY (% REMAINING AFTER 30 MINUTES) [1],HUMAN MICROSOMAL STABILITY (% REMAINING AFTER 30 MINUTES) [2],"IC50 [3, 4]","IC50 ([3]; reported range, read-out: IC50 (range class))"
"N[C@H]1CCC[C@H]1[C@@H](O)C1(c2ccc(OC(F)(F)F)cc2)CCC1 [Example 229, (R)-[(1R,2S)-2-aminocyclopentyl]{1-[4-(trifluoromethoxy)phenyl]-cyclobutyl}methanol]",80%,>85%,4.58 µM,–
"O/N=C(\c1ccccn1)C1(c2ccc(Cl)c(Cl)c2)CCC1 [Example 230, (Z)-[1-(3,4-dichlorophenyl)cyclobutyl](pyridin-2-yl)methanone oxime]",30%,33%,> 10 µM,–
"O[C@H](c1ccccn1)C1(c2ccc(Cl)c(Cl)c2)CC1 [Example 231, (S)-[1-(3,4-dichlorophenyl)cyclopropyl](pyridin-2-yl)methanol]",17%,4.0%,0.54 µM,–
"OC(c1ccccn1)C1(c2cccc(C(F)(F)F)n2)CCC1 (stereo not shown) [Example 234, pyridin-2-yl{1-[6-(trifluoromethyl)pyridin-2-yl]cyclobutyl}methanol]",23%,19%,5.36 µM,–
"OC(c1ccccn1)C1(c2cccc(OC(F)(F)F)c2)CC2(C1)OCCO2 (stereo not shown) [Example 235, pyridin-2-yl{2-[3-(trifluoromethoxy)phenyl]-5,8-dioxaspiro[3.4]oct-2-yl}-methanol]",<0.01%,20%,3.32 µM,–
"O=C1CC(c2cccc(OC(F)(F)F)c2)(C(O)c2ccccn2)C1 (stereo not shown) [Example 237, 3-[hydroxy(pyridin-2-yl)methyl]-3-[3-(trifluoromethoxy)phenyl]-cyclobutanone]",50%,51%,3.66 µM,–
"O[C@H](c1ccccn1)C1(c2cccc(C(F)(F)F)n2)CCC1 [Example 238, (S)-pyridin-2-yl{1-[6-(trifluoromethyl)pyridin-2-yl]cyclobutyl}methanol]",21%,7.1%,3.91 µM,–
"O[C@H](c1ccccn1)C1(c2ccnc(C(F)(F)F)c2)CCC1 [Example 240, (S)-pyridin-2-yl{1-[2-(trifluoromethyl)pyridin-4-yl]cyclobutyl}methanol]",38%,50%,0.71 µM,–
"OC(c1ccccn1)C1(c2cccc(C(F)(F)F)c2)CC2(C1)OCCO2 (stereo not shown) [Example 242, pyridin-2-yl{2-[3-(trifluoromethyl)phenyl]-5,8-dioxaspiro[3.4]oct-2-yl}-methanol]",<0.01%,45%,5.1 µM,–
"O=C1CC(c2cccc(C(F)(F)F)c2)(C(O)c2ccccn2)C1 (stereo not shown) [Example 245, 3-[hydroxy(pyridin-2-yl)methyl]-3-[3-(trifluoromethyl)phenyl]-cyclobutanone]",72%,57%,3.65 µM,–
"OC(c1ccccn1)C1(C2(O)CCOC2)CCC1 (stereo not shown) [Example 246, 3-{1-[hydroxy(pyridin-2-yl)methyl]cyclobutyl}tetrahydrofuran-3-ol]",59%,71%,> 20 µM,> 20 µM
"ON=C1CC(c2ccc(OC(F)(F)F)cc2)([C@H](O)c2ccccn2)C1 (stereo partly drawn) [Example 248, (S)-{3-(hydroxyimino)-1-[4-(trifluoromethoxy)phenyl]cyclobutyl}(pyridin-2-yl)methanol]",29%,70%,1.17 µM,–
"CON=C1CC(c2ccc(OC(F)(F)F)cc2)([C@H](O)c2ccccn2)C1 (stereo partly drawn) [Example 249, (S)-{3-(methoxyimino)-1-[4-(trifluoromethoxy)phenyl]cyclobutyl}(pyridin-2-yl)methanol]",3.2%,61%,3.93 µM,–
"Cc1ccccc1CC1(C(O)c2ccccn2)CCC1 (stereo not shown) [Example 253, [1-(2-methylbenzyl)cyclobutyl](pyridin-2-yl)methanol]",0.017%,0.21%,3.4 µM,–
"OC(c1ccccn1)C1(Cc2cccc(F)c2)CCC1 (stereo not shown) [Example 254, [1-(3-fluorobenzyl)cyclobutyl](pyridin-2-yl)methanol]",0.57%,1.1%,4.22 µM,–
"OC(c1ccccn1)C1(c2ccc(F)c(Cl)c2)CC2(C1)OCCO2 (stereo not shown) [Example 255, [2-(3-chloro-4-fluorophenyl)-5,8-dioxaspiro[3.4]oct-2-yl](pyridin-2-yl)-methanol]",<0.01%,54%,5.49 µM,–
"O=C1CC(c2ccc(F)c(Cl)c2)(C(O)c2ccccn2)C1 (stereo not shown) [Example 258, 3-(3-chloro-4-fluorophenyl)-3-[hydroxy(pyridin-2-yl)methyl]cyclobutanone]",53%,70%,11 µM,–
"O[C@H](c1ccccn1)[C@]1(c2cccc(C(F)(F)F)c2)C[C@H](O)C1 [Example 259, cis-3-[(S)-hydroxy(pyridin-2-yl)methyl]-3-[3-(trifluoromethyl)phenyl]-cyclobutanol]",73%,76%,0.47 µM,–
"OC(c1ccccn1)C1(C2=CCC(F)(F)CC2)CCC1 (stereo not shown) [Example 260, [1-(4,4-difluorocyclohex-1-en-1-yl)cyclobutyl](pyridin-2-yl)methanol]",<0.01%,12%,5.32 µM,–
"OC(c1ccccn1)C1(C2=CCCC(C(F)(F)F)C2)CCC1 (stereo not shown) [Example 261, pyridin-2-yl{1-[5-(trifluoromethyl)cyclohex-1-en-1-yl]cyclobutyl}methanol]",<0.01%,0.01%,1.27 µM,–
"O[C@H](c1ccccn1)[C@]1(c2cccc(C(F)(F)F)c2)C[C@@H](O)C1 [Example 264, trans-3-[(S)-hydroxy(pyridin-2-yl)methyl]-3-[3-(trifluoromethyl)phenyl]-cyclobutanol]",59%,56%,0.23 µM,–
"CC(C)(C)OC(=O)N1CCC(C2(C(O)c3ccccn3)CCC2)C1 (stereo not shown) [Example 265, tert-butyl 3-{1-[hydroxy(pyridin-2-yl)methyl]cyclobutyl}pyrrolidine-1-carboxylate]",0.059%,43%,5.64 µM,–
"OC(c1ccccn1)C1(c2nc3ccccc3s2)CCC1 (stereo not shown) [Example 266, [1-(1,3-benzothiazol-2-yl)cyclobutyl](pyridin-2-yl)methanol]",0.14%,46%,2.31 µM,–
"CN(C)N=C1CC(c2ccc(OC(F)(F)F)cc2)([C@H](O)c2ccccn2)C1 (stereo partly drawn) [Example 267, (S)-{3-(dimethylhydrazinylidene)-1-[4-(trifluoromethoxy)phenyl]-cyclobutyl}(pyridin-2-yl)methanol]",10%,64%,2.41 µM,–
"OC(c1ccccn1)C1(c2nc3ccccc3o2)CCC1 (stereo not shown) [Example 271, [1-(1,3-benzoxazol-2-yl)cyclobutyl](pyridin-2-yl)methanol]",8.6%,62%,2.19 µM,–
"OC(c1ccccn1)C1(C2CCC(F)(F)CC2)CCC1 (stereo not shown) [Example 274, [1-(4,4-difluorocyclohexyl)cyclobutyl](pyridin-2-yl)methanol]",10%,55%,3.11 µM,–
